This experiment addresses Prokineticin receptor 1 (Homo sapiens, UniProt Q8TCW9). Kind of experiment: Antagonist activity at human PKR1 expressed in rat RBL2H3 cells assessed as inhibition of PK1-stimulated intracellular calcium release incubated for 10 mins prior to PK1 stimulation by FLIPR assay. It counts as functional, cell-based, RBL-2H3. A general note: Calcium assays in cells follow changes in intracellular calcium, usually with a dye or a luminescent sensor.

The values below come from ChEMBL document CHEMBL3621181, “Prokineticin Receptor Modulators May Potentially Treat Psychiatric and Neurological Disorders” (ACS Med Chem Lett, 2015).

Each structure is given as a SMILES string.

Prokineticin receptor 1, sequence (Q8TCW9 whole entry): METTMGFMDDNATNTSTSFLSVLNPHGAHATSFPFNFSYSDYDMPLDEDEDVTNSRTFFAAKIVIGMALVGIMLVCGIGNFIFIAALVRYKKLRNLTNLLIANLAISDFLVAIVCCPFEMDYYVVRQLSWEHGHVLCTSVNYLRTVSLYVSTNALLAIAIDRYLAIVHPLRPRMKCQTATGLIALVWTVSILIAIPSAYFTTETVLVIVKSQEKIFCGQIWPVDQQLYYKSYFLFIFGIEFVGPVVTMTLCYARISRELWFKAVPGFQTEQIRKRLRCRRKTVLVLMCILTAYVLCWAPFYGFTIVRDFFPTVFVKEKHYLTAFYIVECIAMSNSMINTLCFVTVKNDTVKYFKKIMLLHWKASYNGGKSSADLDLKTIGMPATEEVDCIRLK

By IC50 is commonly meant the concentration at which inhibition is half-maximal. Turning to `CC(C)n1c(C2CCCN(C(=O)c3ccnc(N(C)C)c3)C2)nc2ccccc21` (configuration not stated), the IC50 was 0.32 µM. In the case of `COC1(c2ncc(Cl)cc2C)CCCN(C(=O)c2cn(C)nc2N)C1` (configuration not stated) it was over 9 µM.
